# Source: publication PMC9032987, “Cytotoxic Alkylynols of the Sponge Cribrochalina vasculum: Structure, Synthetic Analogs and SAR Studies” (Marine Drugs, 2022)
# pIC50: −log10 of the molar value.
# Key:
# [1] = system: WI-38 diploid lung fibroblasts; parameters: method as in PMID 25319389; conditions: 72 h; cited from earlier work
# NSCLC U-1810 cells [2] = system: NSCLC U-1810 cells; parameters: method as in PMID 25319389; conditions: 72 h; cited from earlier work
# NSCLC U-1810 cells [3] = assay: MTT cytotoxicity assay in NSCLC U-1810 cells; assay type: cell-based, human; conditions: for Selectivity NSCLC cells (U-1810) vs. diploid fibroblasts (WI-38): calculated at IC50 (WI-38 IC50 / U-1810 IC50)
# Procedure: Cytotoxicity structure-activity relationship analyses of compounds in NSCLC tumor cells and fibroblasts. Stock solutions (10 mg/mL) of the compounds to be tested were made in DMSO and further diluted with cell culture media prior to structure-activity relationship (SAR) screening as earlier described. To assess anti-tumor activity, the large cell lung carcinoma cell line NSCLC U-1810 (kind gift from Uppsala University) and diploid lung fibroblasts WI-38 [30] were used. U-1810 cells were propagated in RPMI-1640 medium (Sigma-Aldrich, St. Louis, […], USA) supplemented with FBS (10% HyClone) and L-glutamine (2 mmol/L, Invitrogen) while WI-38 fibroblasts were cultured in Eagle’s Minimum Essential Medium (Sigma-Aldrich) with 15% FBS and L-glutamine. For SAR assessment the cytotoxic assay 3-(4,5-dimethylthiazol-2-yl)-2,5 diphenyltetrazolium bromide (MTT) was applied. Profiling of U-1810 cells was carried out at 80% confluency (obtained by seeding 5000 cells/well in a 96-well plate for 24 h prior to treatment) and of WI-38 at 100% confluency (obtained by seeding 18,000 cells/well in a 96-well plate for 24 h prior to compound addition), the later to mimic the behavior of fibroblasts in the human body where they are non-dividing. For SAR evaluation, different concentrations of the compounds were added to fresh media while untreated cells were treated with DMSO corresponding to the amount applied when testing the highest concentration of the different compounds. The cytotoxicity of the compounds was assessed at 72 h post addition to cells by adding MTT solution (0.5 mg/mL, Sigma-Aldrich, 4 h at 37 °C) and dissolving the resulting formazan crystals in an SDS-containing solution (10% SDS and 0.01 mol/L HCl). Absorbance was quantified at 595 nm and the compound-induced cytotoxicity was calculated relative to that observed in DMSO-treated cells. The IC50 values were deduced from survival plots drawn in Graph Pad PRISM software vers.6 and for some of the compounds extrapolated as indicated in footnotes to Table 1.
SMILES,pIC50 [1],pIC50 (NSCLC U-1810 cells [2]),cytotoxic activity in NSCLC U-1810 cells (in words) (NSCLC U-1810 cells [3]),Selectivity NSCLC cells (U-1810) vs. diploid fibroblasts (WI-38) (NSCLC U-1810 cells [3])
"C#C[C@H](O)/C=C/CCCCCCCCC(C)CCCCCCCC (stereo partly drawn) [Compound 23, (3R)-14-Methyldocos-(4E)-en-1-yn-3-ol]",5.01,6.10,equally active,12.1
"C#C[C@H](O)/C=C/CCCCCCCCCCCCCCC [scal-18, (3R)-Icos-(4E)-en-1-yn-3-ol]",5.14,6.30,equally active,14.6
